{"source": "patent US12357691B2", "about": "“Antibodies specifically binding to CD147 and uses thereof” (Alphelix Biotech Co., Ltd., priority 2022, dated 2025)", "key": {"[1]": {"tested_on": "peripheral blood mononuclear cells (PBMC)", "assay": "Toxicity on patients' PBMC", "type": "cell-based, human", "protocol": "Then, treating organoids in presence of 5 μg/mL pembrolizumab, in combination with either of these agents (AZD3965 at 0.1 μM, GSK2837808A at 1 μM, and WZHAb10 at 0.0006 μM) and each PBMC (FIGS. 18, 19 and 20). IgG was used as control in FIG. 18, IgG and/or vehicle were used as control in FIGS. 19-20."}, "[2]": {"tested_on": "patient-derived NSCLC organoid", "assay": "Organoid drug response assay (CellTiter-Glo)", "type": "cell-based, human", "settings": "three days of drug incubation; three patient models", "protocol": "All procedures performed involving human participants were approved by the Ethics Committee of Shanghai Jiao Tong University School of Medicine and were in accordance with the ethical standards of Helsinki Declaration (as revised in 2013). All the donors signed an informed consent form. Freshly excised tumor samples from patients were kept in MACS tissue storage solution (Miltenyi) at 4° C. upon harvest. Tumor tissues were minced into small pieces on ice, then incubated with 0.001% DNase (Sigma-Aldrich, MO, USA), 1 mg/mL collagenase/dispase (Roche, IN, USA), 200 U/mL penicillin, […], and […] amphotericin B (2% antibiotics, Sigma) in DMEM/F12 medium (Thermofisher) at 37° C. for three hours with gentle agitation and intermittent resuspension. Thereafter, the digested tissue suspension was repeatedly triturated via pipetting and passed through a 70 μm filter. The strained suspension was centrifuged at 112×g for three minutes, and red blood cells were lysed using lysis buffer (00443357, Thermofisher) for five minutes. […]\nThe organoids cultured over two weeks were harvested and dissociated using 1× TrypLe (Thermofisher). […] The plates were agitated for 30 minutes at room temperature (10° C.-30° C.) prior to measuring luminescence."}, "[3]": {"biological_target": "WT MCT4/BSG-2 (mouse) (UniProt P57787)"}, "[4]": {"biological_target": "WT MCT1/BSG-2 (mouse) (UniProt P53986)"}}, "data": [{"molecule": "Cc1[nH]nc(C(F)(F)F)c1Cc1sc2c(c1C(=O)N1C[C@](C)(O)CO1)c(=O)n(C)c(=O)n2C(C)C", "note": "[AZD3965]", "values": [{"measurement": "effect on T cell growth (PBMC)", "setting": "[1]; at 0.1 μM", "value": "little effects on T cell growth"}, {"measurement": "anti-proliferative effect of single agent on organoids", "setting": "[2]", "value": "moderate anti-proliferative effect"}]}, {"molecule": "COc1ncc(-c2ccc3c(Nc4cc(Oc5cc(F)cc(F)c5)cc(C(=O)O)c4)c(S(=O)(=O)NC4CC4)cnc3c2)c(OC)n1", "note": "[GSK2837808A]", "values": [{"measurement": "effect on T cell growth (PBMC)", "setting": "[1]; at 1 μM", "value": "little effects on T cell growth"}, {"measurement": "anti-proliferative effect of single agent on organoids", "setting": "[2]", "value": "moderate anti-proliferative effect"}]}, {"molecule": "WZHAb10 (antibody, V domains shown) VH: QVQLVQSGAEVKKPGASVKVSCKASGYTFTNYWIHWVRQAPGQGLEWMGMIHPNSGSINYNEKFKTRVTMTRDTSTSTVYMELSSLRSEDTAVYYCARVGSGSLDYWGQGTLVTVSS VL: EIVLTQSPATLSLSPGERATLSCRASQSISDYLHWYQQKPGQAPRLLIKYVSQSISGIPARFSGSGSGTYFTLTISSLEPEDVAVYYCQNGEEAPYTFGQGTKLEIKR", "values": [{"measurement": "transport activity (H+ influx, H+-L-lactate symport in proteoliposomes)", "setting": "[3]", "value": 50, "unit": "%"}, {"measurement": "transport activity (H+ influx, H+-pyruvate symport in proteoliposomes)", "setting": "[4]", "value": 75, "unit": "%"}]}]}
